Assay results reported in patent US6346535B1, “Fungicidal mixtures” (American Cyanamid Company, priority 1999, dated 2002).
Like-named read-outs stand apart in the source and are kept apart here.

What was measured:
Assay type in all cases: in vivo
[1] = tested on: Puccinia recondita on wheat; assay: Greenhouse trial, 4 day residual, Puccinia recondita on wheat; conditions: for pest or weed control at 0.4 ppm / pest or weed control at 2 ppm / pest or weed control at 10 ppm / pest or weed control at 50 ppm / pest or weed control at 4 ppm / pest or weed control at 16 ppm / pest or weed control at 64 ppm / pest or weed control at 256 ppm: Puccinia recondita, 96 h, read-out: Observed Efficacy; for pest or weed control at 0.4 ppm / pest or weed control at 2 ppm / pest or weed control at 10 ppm / pest or weed control at 50 ppm: Table XV (Example 15), 4 day residual; for pest or weed control at 0.4 ppm: dose rate 0.4 ppm; for pest or weed control at 2 ppm: dose rate 2 ppm; for pest or weed control at 10 ppm: dose rate 10 ppm; for pest or weed control at 50 ppm: dose rate 50 ppm; for pest or weed control at 4 ppm / pest or weed control at 16 ppm / pest or weed control at 64 ppm / pest or weed control at 256 ppm / Observed Efficacy: compound alone
Excerpt: (§1) The fungicides are applied in single treatments, or in a combination comprising a benzophenone of formula I and a compound selected from (A) through (E) as defined above. The compounds are applied in form of an aqueous spray mix obtained from a concentrated formulation or the technical material.
(§2) 1. Seed is planted in 6 cm diameter plastic pots and maintained in the greenhouse.
(§3) 2. When the primary leaf is fully expanded (in the case of cereals) or several leaves are present (in the case of dicots), formulated test compounds are sprayed with a three nozzle overhead fungicide sprayer to near run-off. Alternatively, a single nozzle overhead track sprayer is used for application of the compounds to cereals at a rate of 200 liters/ha (l/ha). Plants are then allowed to air-dry.
(§4) 3. Inoculation precedes treatment in the case of curative evaluations and follows treatment in case of residual evaluations. For inoculation of powdery mildew disease, plants are set up on greenhouse benches with bottom watering mats and inoculated by dusting them with conidia from infected plants. Between inoculation and treatment for curative evaluations and between treatment and inoculation for residual evaluations, plants are maintained in the greenhouse with bottom watering. For inoculation of non-powdery mildew diseases, an aqueous spore suspension of the pathogen is applied to the plant and the plants are kept 1-2 days in a moist infection chamber before being returned to the greenhouse where they are maintained by bottom watering.
(§5) 4. Disease on the foliage as percent leaf area with disease symptoms/signs is evaluated about 7 days after inoculation. In the case of wheat, the tips and bases of the leaves are excluded from the evaluation. [formula]
(§6) 1. Technical compounds are formulated in a solvent/surfactant system consisting of 5% acetone and 0.05% Tween 20 in deionized water. Compounds are dissolved in acetone prior to addition of the water; the Tween 20 can be added through either the acetone or the water. Dilutions are made using the solvent/surfactant system. Formulated compounds are prepared using deionized water.
(§7) Assessments of the diseases took place at the indicated day after the application of the compounds. Per cent infected leaf area infected was evaluated. The efficacy of the compounds/compounds mixtures to control the diseases was calculated by using the formula given above under item 4: […]
(§8) Synergy of a fungicide mixture was determined by comparing the actual (observed) fungicidal activity of the mixture to the expected fungicidal activity of the mixture as calculated using the COLBY formula given hereinabove.
Fungicidal Efficacy of the Mixture of BP-4+Other Fungicides (4 Day Residual) Against Puccinia recondita on Wheat
Fungicidal Efficacy of the Mixture of BP-4+Myclobutanil (4 Day Residual) Against Puccinia recondita on Wheat

[2] = tested on: Erysiphe cichoracearum on cucumbers; assay: Greenhouse trial, 4 day residual, Erysiphe cichoracearum on cucumbers; conditions: for pest or weed control at 0.4 ppm / pest or weed control at 2 ppm / pest or weed control at 10 ppm / pest or weed control at 50 ppm / pest or weed control at 4 ppm / pest or weed control at 16 ppm / pest or weed control at 64 ppm / pest or weed control at 256 ppm: Golovinomyces cichoracearum, 96 h, read-out: Observed Efficacy
Excerpt: as §1, §2, §3, §4, §5, §6, §7, §8

[3] = tested on: Leptosphaeria nodorum on wheat; assay: Greenhouse trial, 4 day residual, Leptosphaeria nodorum on wheat; conditions: for pest or weed control at 64 ppm / pest or weed control at 256 ppm / pest or weed control at 4 ppm / pest or weed control at 16 ppm: Parastagonospora nodorum, 96 h, read-out: Observed Efficacy
Excerpt: as §1, §2, §3, §4, §5, §6, §7, §8
Fungicidal Efficacy of the Mixture of BP-4+Other Fungicides (4 Day Residual) Against Leptosphaeria nodorum on Wheat

[4] = Table XIV (Example 14), 4 day residual, dose rate 0.4 ppm
[5] = Table XIV (Example 14), 4 day residual, dose rate 2 ppm
[6] = Table XIV (Example 14), 4 day residual, dose rate 10 ppm
[7] = Table XIV (Example 14), 4 day residual, dose rate 50 ppm
[8] = Table XI, compound alone, dose rate 0.4 ppm
[9] = Table XI, compound alone, dose rate 2 ppm
[10] = Table XI, compound alone, dose rate 10 ppm
[11] = Table XI, compound alone, dose rate 50 ppm
[12] = Table X, compound alone, dose rate 64 ppm
[13] = Table X, compound alone, dose rate 256 ppm
[14] = Table VIII, compound alone, dose rate 4 ppm
[15] = Table VIII, compound alone, dose rate 16 ppm
[16] = Table VIII, compound alone, dose rate 64 ppm
[17] = Table VIII, compound alone, dose rate 256 ppm
[18] = Table VI, compound alone, dose rate 4 ppm
[19] = Table VI, compound alone, dose rate 16 ppm
[20] = Table VI, compound alone, dose rate 64 ppm
[21] = Table VI, compound alone, dose rate 256 ppm

CCCC(Cn1cncn1)c1ccc(Cl)cc1Cl (stereo not drawn) [Penconazole]
pest or weed control at 0.4 ppm [1]: 0% | pest or weed control at 2 ppm [1]: 3% | pest or weed control at 10 ppm [1]: 10% | pest or weed control at 50 ppm [1]: 26% | pest or weed control at 0.4 ppm [2, 4]: 6% | pest or weed control at 2 ppm [2, 5]: 35% | pest or weed control at 10 ppm [2, 6]: 37% | pest or weed control at 50 ppm [2, 7]: 67%

Fc1ccc([C@]2(Cn3cncn3)O[C@H]2c2ccccc2Cl)cc1 (racemic) [Epoxiconazole]
pest or weed control at 0.4 ppm [2, 8]: 0% | pest or weed control at 2 ppm [2, 9]: 46% | pest or weed control at 10 ppm [2, 10]: 68% | pest or weed control at 50 ppm [2, 11]: 77%

CC(Oc1ccc(Cl)cc1Cl)C(=O)NC(C)(C#N)C(C)C (stereo not drawn) [AC 382042]
Observed Efficacy [2, 8]: 7% | Observed Efficacy [2, 9]: 3% | Observed Efficacy [2, 10]: 14% | Observed Efficacy [2, 11]: 25%

O=[N+]([O-])c1cc(C(F)(F)F)c(Cl)c([N+](=O)[O-])c1Nc1ncc(C(F)(F)F)cc1Cl [Fluazinam]
pest or weed control at 4 ppm ([1]; Table IX, dose rate 4 ppm): 0% | pest or weed control at 16 ppm ([1]; Table IX, dose rate 16 ppm): 6% | pest or weed control at 64 ppm ([1]; Table IX, dose rate 64 ppm): 22% | pest or weed control at 256 ppm ([1]; Table IX, dose rate 256 ppm): 80% | pest or weed control at 64 ppm [3, 12]: 81% | pest or weed control at 256 ppm [3, 13]: 91%

CC(C)(C)C(O)(CCc1ccc(Cl)cc1)Cn1cncn1 (stereo not drawn) [Tebuconazole]
pest or weed control at 0.4 ppm [2, 8]: 10% | pest or weed control at 2 ppm [2, 9]: 45% | pest or weed control at 10 ppm [2, 10]: 79% | pest or weed control at 50 ppm [2, 11]: 95%

CCCCCCCCCCCCNC(=N)N [Dodine]
pest or weed control at 4 ppm [3]: 0% | pest or weed control at 16 ppm [3]: 6% | pest or weed control at 64 ppm [3]: 24% | pest or weed control at 256 ppm [3]: 59%

Cyprodinil
Observed Efficacy ([1]; Table VII, dose rate 4 ppm): 0% | Observed Efficacy ([1]; Table VII, dose rate 16 ppm): 0% | Observed Efficacy ([1]; Table VII, dose rate 64 ppm): 0% | Observed Efficacy ([1]; Table VII, dose rate 256 ppm): 0% | Observed Efficacy [3, 14]: 0% | Observed Efficacy [3, 15]: 75% | Observed Efficacy [3, 16]: 88% | Observed Efficacy [3, 17]: 93% | Observed Efficacy [2, 18]: 0% | Observed Efficacy [2, 19]: 0% | Observed Efficacy [2, 20]: 0% | Observed Efficacy [2, 21]: 15%

Quinoxyfen
Observed Efficacy ([1]; Table VII, dose rate 4 ppm): 0% | Observed Efficacy ([1]; Table VII, dose rate 16 ppm): 0% | Observed Efficacy ([1]; Table VII, dose rate 64 ppm): 0% | Observed Efficacy ([1]; Table VII, dose rate 256 ppm): 0% | Observed Efficacy [3, 15]: 1% | Observed Efficacy [3, 16]: 0% | Observed Efficacy [3, 17]: 18% | Observed Efficacy [2, 18]: 90% | Observed Efficacy [2, 19]: 100% | Observed Efficacy [2, 20]: 100% | Observed Efficacy [2, 21]: 100%

N#Cc1c[nH]cc1-c1cccc(Cl)c1Cl [Fenpiclonil]
pest or weed control at 4 ppm ([1]; Table IX, dose rate 4 ppm): 1% | pest or weed control at 16 ppm ([1]; Table IX, dose rate 16 ppm): 0% | pest or weed control at 64 ppm ([1]; Table IX, dose rate 64 ppm): 18% | pest or weed control at 256 ppm ([1]; Table IX, dose rate 256 ppm): 58%

CO/C=C(/C(=O)OC)c1ccccc1Oc1cc(Oc2ccccc2C#N)ncn1 [Azoxystrobin]
Observed Efficacy [3, 14]: 84% | Observed Efficacy [3, 15]: 97% | Observed Efficacy [3, 16]: 100% | Observed Efficacy [3, 17]: 100% | Observed Efficacy [2, 18]: 78% | Observed Efficacy [2, 19]: 96% | Observed Efficacy [2, 20]: 100% | Observed Efficacy [2, 21]: 100%

C[C@@]1(c2ccc(Oc3ccccc3)cc2)OC(=O)N(Nc2ccccc2)C1=O (racemic) [Famoxadone]
pest or weed control at 4 ppm ([1]; Table IX, dose rate 4 ppm): 45% | pest or weed control at 16 ppm ([1]; Table IX, dose rate 16 ppm): 80% | pest or weed control at 64 ppm ([1]; Table IX, dose rate 64 ppm): 92% | pest or weed control at 4 ppm ([3]; Table X, compound alone, dose rate 4 ppm): 66% | pest or weed control at 16 ppm ([3]; Table X, compound alone, dose rate 16 ppm): 69% | pest or weed control at 64 ppm [3, 12]: 80% | pest or weed control at 256 ppm [3, 13]: 97%

COc1ccc(C(=CC(=O)N2CCOCC2)c2ccc(Cl)cc2)cc1OC [Dimethomorph]
pest or weed control at 16 ppm ([1]; Table VII, dose rate 16 ppm): 0% | pest or weed control at 64 ppm ([1]; Table VII, dose rate 64 ppm): 0% | pest or weed control at 256 ppm ([1]; Table VII, dose rate 256 ppm): 0% | pest or weed control at 4 ppm [3, 14]: 1% | pest or weed control at 16 ppm [3, 15]: 6% | pest or weed control at 64 ppm [3, 16]: 11% | pest or weed control at 256 ppm [3, 17]: 14% | pest or weed control at 4 ppm [2, 18]: 0% | pest or weed control at 16 ppm [2, 19]: 0% | pest or weed control at 64 ppm [2, 20]: 0% | pest or weed control at 256 ppm [2, 21]: 18%

Ethirimol
Observed Efficacy ([1]; Table VII, dose rate 16 ppm): 0% | Observed Efficacy ([1]; Table VII, dose rate 64 ppm): 0% | Observed Efficacy ([1]; Table VII, dose rate 256 ppm): 0% | Observed Efficacy [2, 18]: 50% | Observed Efficacy [2, 19]: 83% | Observed Efficacy [2, 20]: 94% | Observed Efficacy [2, 21]: 100%

COCC(=O)N(c1c(C)cccc1C)C(C)C(=O)OC (stereo not drawn) [Metalaxyl]
pest or weed control at 64 ppm ([1]; Table IX, dose rate 64 ppm): 0% | pest or weed control at 256 ppm ([1]; Table IX, dose rate 256 ppm): 12%

CC(C)(C)C(O)C(Oc1ccc(Cl)cc1)n1cncn1 (stereo not drawn) [Triadimenol]
pest or weed control at 0.4 ppm [1]: 1% | pest or weed control at 2 ppm [1]: 21% | pest or weed control at 10 ppm [1]: 69% | pest or weed control at 50 ppm [1]: 98% | pest or weed control at 0.4 ppm [2, 4]: 1% | pest or weed control at 2 ppm [2, 5]: 21% | pest or weed control at 10 ppm [2, 6]: 45% | pest or weed control at 50 ppm [2, 7]: 68%

N#Cc1c(Cl)c(Cl)c(Cl)c(C#N)c1Cl [Chlorothalonil]
pest or weed control at 4 ppm ([1]; Table VII, dose rate 4 ppm): 0% | pest or weed control at 16 ppm ([1]; Table VII, dose rate 16 ppm): 0% | pest or weed control at 64 ppm ([1]; Table VII, dose rate 64 ppm): 0% | pest or weed control at 256 ppm ([1]; Table VII, dose rate 256 ppm): 31% | pest or weed control at 4 ppm [2, 18]: 0% | pest or weed control at 16 ppm [2, 19]: 0% | pest or weed control at 64 ppm [2, 20]: 0% | pest or weed control at 256 ppm [2, 21]: 1%

CC(Cc1ccc(C(C)(C)C)cc1)CN1CCCCC1 (stereo not drawn) [Fenpropidin]
pest or weed control at 4 ppm ([1]; Table VII, dose rate 4 ppm): 0% | pest or weed control at 16 ppm ([1]; Table VII, dose rate 16 ppm): 0% | pest or weed control at 64 ppm ([1]; Table VII, dose rate 64 ppm): 8% | pest or weed control at 256 ppm ([1]; Table VII, dose rate 256 ppm): 97% | pest or weed control at 64 ppm [3, 16]: 0% | pest or weed control at 256 ppm [3, 17]: 21% | pest or weed control at 4 ppm [2, 18]: 0% | pest or weed control at 16 ppm [2, 19]: 6% | pest or weed control at 64 ppm [2, 20]: 21% | pest or weed control at 256 ppm [2, 21]: 69%

CSC(=O)c1cccc2nnsc12 [BION, acibenzolar]
Observed Efficacy ([1]; Table VII, dose rate 4 ppm): 0% | Observed Efficacy ([1]; Table VII, dose rate 16 ppm): 0% | Observed Efficacy ([1]; Table VII, dose rate 64 ppm): 0% | Observed Efficacy ([1]; Table VII, dose rate 256 ppm): 0% | Observed Efficacy [2, 18]: 0% | Observed Efficacy [2, 19]: 0% | Observed Efficacy [2, 20]: 0% | Observed Efficacy [2, 21]: 0%

O=C1C2CC=CCC2C(=O)N1SC(Cl)(Cl)Cl (stereo not drawn) [Captan]
pest or weed control at 4 ppm ([1]; Table IX, dose rate 4 ppm): 4% | pest or weed control at 16 ppm ([1]; Table IX, dose rate 16 ppm): 11% | pest or weed control at 64 ppm ([1]; Table IX, dose rate 64 ppm): 55% | pest or weed control at 256 ppm ([1]; Table IX, dose rate 256 ppm): 89% | pest or weed control at 64 ppm [3, 12]: 84% | pest or weed control at 256 ppm [3, 13]: 90%
